Measured values: patent publication US10988477B2 (Merck Patent GmbH, priority 2018, dated 2021)
Like-named read-outs stand apart in the source and are kept apart here.

Columns and labels:
GCN2 kinase = GCN2 kinase (Homo sapiens, UniProt Q9P2K8); test: GCN2 enzyme inhibition assay (Transcreener ADP2 fluorescence polarization); assay type: biochemical; details: 280 μM ATP; for IC50: compounds of Formula IV
How it was run: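 Inhibition of 4 nM GCN2 was measured with compound up to 8 μM final, ATP 280 μM and (RS)7 peptide 200 μM over a 1 h, 25 °C reaction. ADP FP readout; IC50 and Ki(app) calculated from percent inhibition.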

[1] = biological target: intracellular GCN2 (phosphorylation of the GCN2 substrate eIF2α) (Homo sapiens, UniProt Q9P2K8); test: GCN2 cellular inhibition assay (AlphaScreen SureFire P-eIF2α Ser51, borrelidin-treated U2OS cells); assay type: cell-based
Method: Compounds can be screened for their ability to inhibit intracellular GCN2 using an AlphaScreen assay (Perkin Elmer) to detect phosphorylation of the GCN2 substrate eIF2α in borrelidin-treated cells. U2OS cells are plated at 5,000 cells per well in 384-well white polystyrene plates (Corning 3570) in McCoy's 5 A media (GIBCO 26600-023) supplemented with 10% foetal bovine serum (SAFC 12103C), Penicillin/Streptomycin solution diluted 1:100 (Sigma P0781), and 2 mM L-glutamine (Sigma G7513), and allowed to adhere overnight at 37° C. in 5% CO2. Compounds are then added to the cell media from a final concentration of 40 μM in 4-fold serial dilutions. Borrelidin (FluoroChem M01440) is immediately added to the wells to a final concentration of 10 μM and the cells are incubated for 1 h at 37° C. in 5% CO2. After 1 h of treatment with borrelidin, the media is removed, and the cells are lysed with lysis buffer (TGR BioSciences TGRLB) at ambient temperature.
An AlphaScreen SureFire P-eIF2α (Ser51) assay kit (Perkin Elmer TGREIF2S) was used to measure levels of eIF2α phosphorylated on Serine 51. Anti-phosphorylated eIF2α Ser51 antibody-linked acceptor beads (TGR BioScience 6760617) are added to the cell homogenate (diluted 1:250 into a mixture of activation (TGR BioScience TGRAB) and reaction buffer (TGR BioScience TGREIF2S) prepared immediately before use). The plate is then incubated for 2 h at ambient temperature in the dark. Anti-eIF2α antibody-linked donor beads (TGR BioScience 6760617) were then added (diluted 1:100 in dilution buffer (TGR BioScience TGRDB) prepared immediately before use). The plate is then incubated overnight at ambient temperature in the dark.
Plates are analyzed on an Alpha Technology-compatible PHERAstar FS plate reader (BMG Labtech Version 1.14) to quantify phosphorylated eIF2α Ser51 levels. The percentage inhibition of phosphorylated eIF2α is calculated by comparison to control wells stimulated with borrelidin alone.

[2] = compounds of Formula II, 4 nM GCN2 kinase
[3] = compounds of Formula II, biomarker assay, phosphorylated eIF2α Ser51 in borrelidin-treated U2OS cells
[4] = compounds of Formula III, 4 nM GCN2 kinase
[5] = compounds of Formula III, U2OS cells, 10 μM borrelidin, 1 h, read-out: GCN2 Biomarker (IC50)
[6] = compounds of Formula V, 4 nM GCN2 kinase
[7] = compounds of Formula V, U2OS cells, 10 μM borrelidin, 1 h, read-out: GCN2 Biomarker (IC50)
[8] = Enzyme activity for compounds of Formula IV, Ki(app), 25° C.
[9] = compounds of Formula IV, biomarker assay, phosphorylated eIF2α Ser51 in borrelidin-treated U2OS cells

Chain of intracellular GCN2 (phosphorylation of the GCN2 substrate eIF2α) (Q9P2K8 whole entry): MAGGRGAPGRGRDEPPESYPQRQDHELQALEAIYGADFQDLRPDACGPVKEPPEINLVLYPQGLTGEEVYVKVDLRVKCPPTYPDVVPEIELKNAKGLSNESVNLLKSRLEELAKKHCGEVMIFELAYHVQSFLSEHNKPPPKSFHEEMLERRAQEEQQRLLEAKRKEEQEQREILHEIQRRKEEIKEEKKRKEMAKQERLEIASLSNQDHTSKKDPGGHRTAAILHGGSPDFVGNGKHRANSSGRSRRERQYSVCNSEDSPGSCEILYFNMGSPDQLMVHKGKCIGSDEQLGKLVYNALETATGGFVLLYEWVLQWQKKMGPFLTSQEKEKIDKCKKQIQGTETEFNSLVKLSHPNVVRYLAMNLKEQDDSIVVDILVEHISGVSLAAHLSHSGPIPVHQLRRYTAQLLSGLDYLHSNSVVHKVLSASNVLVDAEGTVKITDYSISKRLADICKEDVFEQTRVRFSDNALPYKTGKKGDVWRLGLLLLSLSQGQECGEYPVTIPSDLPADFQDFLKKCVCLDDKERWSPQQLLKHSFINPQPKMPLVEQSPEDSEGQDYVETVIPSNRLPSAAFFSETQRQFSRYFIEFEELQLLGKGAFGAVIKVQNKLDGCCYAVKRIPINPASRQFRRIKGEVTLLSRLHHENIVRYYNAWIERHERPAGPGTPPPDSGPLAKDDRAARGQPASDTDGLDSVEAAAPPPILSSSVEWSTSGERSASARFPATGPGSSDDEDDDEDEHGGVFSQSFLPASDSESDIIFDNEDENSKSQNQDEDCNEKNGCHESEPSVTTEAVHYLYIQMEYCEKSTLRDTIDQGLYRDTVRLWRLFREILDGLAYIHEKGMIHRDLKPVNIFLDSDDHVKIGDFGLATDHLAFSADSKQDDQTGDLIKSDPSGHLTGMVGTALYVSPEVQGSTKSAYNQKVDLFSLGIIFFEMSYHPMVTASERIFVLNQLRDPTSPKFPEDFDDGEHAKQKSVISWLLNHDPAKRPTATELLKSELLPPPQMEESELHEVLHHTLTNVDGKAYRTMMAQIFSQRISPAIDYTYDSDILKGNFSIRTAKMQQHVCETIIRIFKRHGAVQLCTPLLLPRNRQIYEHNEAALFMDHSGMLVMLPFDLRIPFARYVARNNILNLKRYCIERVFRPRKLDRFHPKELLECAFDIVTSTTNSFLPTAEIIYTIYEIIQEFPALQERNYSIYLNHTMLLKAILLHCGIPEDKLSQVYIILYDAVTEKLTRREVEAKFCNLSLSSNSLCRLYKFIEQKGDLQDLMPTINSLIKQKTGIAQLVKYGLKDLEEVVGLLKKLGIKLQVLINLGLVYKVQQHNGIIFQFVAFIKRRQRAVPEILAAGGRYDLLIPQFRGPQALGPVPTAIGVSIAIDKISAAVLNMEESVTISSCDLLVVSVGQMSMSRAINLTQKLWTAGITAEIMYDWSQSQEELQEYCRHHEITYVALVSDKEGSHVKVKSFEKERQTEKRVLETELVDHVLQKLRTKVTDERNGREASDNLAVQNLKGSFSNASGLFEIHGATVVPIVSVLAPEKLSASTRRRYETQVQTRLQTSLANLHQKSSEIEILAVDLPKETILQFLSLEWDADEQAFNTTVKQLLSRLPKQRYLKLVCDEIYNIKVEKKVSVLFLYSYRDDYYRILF
Chain of GCN2 kinase (Q9P2K8 whole entry): as above

**Q.** What does the source list for `CS(=O)(=O)N1CC2(CCCN(c3ccnc(-c4cnc5ccc(C(F)F)nn45)c3)C2)C1`?
**A.** Ki (GCN2 kinase; [2]): < 10 nM; IC50 [1, 3]: < 500 nM

**Q.** `CC(=O)N1CCN(c2cc(-c3cnn4ccc(C(F)F)nc34)ccn2)CC1` was tested. Which Ki (GCN2 kinase; [4]) did it give?
**A.** 10 to 1000 nM

**Q.** What about the IC50 [1, 5] of the same molecule?
**A.** 500 to 5000 nM

**Q.** For `CC(=O)N1CCN(c2cc(-c3cnn4ccc(C(F)(F)F)nc34)ccn2)CC1`, which Ki (GCN2 kinase; [4]) is on record?
**A.** 10 to 1000 nM

**Q.** What about the IC50 [1, 5] of the same molecule?
**A.** > 5000 nM

**Q.** Which results are given for `CC1C(CNS(C)(=O)=O)N(C)CCN1c1cc(-c2cnc3ccc(C(F)F)nn23)ncn1` (mixture of isomers) [II-312, N-((4-(6-(6-(Difluoromethyl)imidazo[1,2-b]pyridazin-3-yl)pyrimidin-4-yl)-1,3-dimethylpiperazin-2-yl)methyl)methanesulfonamide]?
**A.** Ki (GCN2 kinase; [2]): < 10 nM; IC50 [1, 3]: < 500 nM

**Q.** With `CP(C)(=O)C1CC(c2cn[nH]c2)CN(c2ccnc(-c3cnc4sc(C(F)(F)F)cn34)n2)C1` (racemic) [Compound V-5, 5-[4-[3-Dimethylphosphoryl-5-(1H-pyrazol-4-yl)-1-piperidyl]pyrimidin-2-yl]-2-(trifluoromethyl)imidazo[2,1-b]thiazole] as the molecule, how does the Ki (GCN2 kinase; [6]) read?
**A.** 10 to 100 nM

**Q.** What about the IC50 [1, 7] of the same molecule?
**A.** > 5000 nM

**Q.** `CS(=N)(=O)CC1CCCN(c2ccnc(-c3cnc4sc(C(F)(F)F)cn34)n2)C1` (racemic) [Compound V-18, Imino(methyl)((1-(2-(2-(trifluoromethyl)imidazo[2,1-b]thiazol-5-yl)pyrimidin-4-yl)piperidin-3-yl)methyl)-λ^6-sulfanone] was tested. Which Ki (GCN2 kinase; [6]) did it give?
**A.** 100 to 1000 nM

**Q.** What about the IC50 [1, 7] of the same molecule?
**A.** > 5000 nM

**Q.** How did the Ki (GCN2 kinase; [6]) turn out when `CS(=N)(=O)CC1CCCN(c2ccnc(-c3cnc4sc(C(F)(F)F)cn34)n2)C1` (racemic) [Compound V-19, Imino(methyl)((1-(2-(2-(trifluoromethyl)imidazo[2,1-b]thiazol-5-yl)pyrimidin-4-yl)piperidin-3-yl)methyl)-λ^6-sulfanone] was run?
**A.** 100 to 1000 nM

**Q.** What about the IC50 [1, 7] of the same molecule?
**A.** > 5000 nM

**Q.** With `CC1(F)CCN(c2cc(-c3cnc4ccc(C(F)F)nn34)ncn2)CC1CNS(C)(=O)=O` (racemic) [II-350, N-((1-(6-(6-(Difluoromethyl)imidazo[1,2-b]pyridazin-3-yl)pyrimidin-4-yl)-4-fluoro-4-methylpiperidin-3-yl)methyl)methanesulfonamide] as the molecule, how does the Ki (GCN2 kinase; [2]) read?
**A.** < 10 nM

**Q.** And the IC50 [1, 3]?
**A.** < 500 nM

**Q.** For `CC1CC(C(N)=O)C(C)N(c2cc(-c3cnc4ccc(C(F)(F)F)nn34)ncn2)C1` (racemic) [II-719, 2,5-Dimethyl-1-[6-[6-(trifluoromethyl)imidazo[1,2-b]pyridazin-3-yl]pyrimidin-4-yl]piperidine-3-carboxamide], which Ki (GCN2 kinase; [2]) is on record?
**A.** 10 to 1000 nM

**Q.** What about the IC50 [1, 3] of the same molecule?
**A.** 500 to 5000 nM

**Q.** Which results are given for `CC1CC(C(N)=O)C(C)N(c2cc(-c3cnc4ccc(C(F)(F)F)nn34)ncn2)C1` (racemic) [II-720, 2,5-Dimethyl-1-[6-[6-(trifluoromethyl)imidazo[1,2-b]pyridazin-3-yl]pyrimidin-4-yl]piperidine-3-carboxamide]?
**A.** Ki (GCN2 kinase; [2]): 10 to 1000 nM; IC50 [1, 3]: 500 to 5000 nM

**Q.** For `C[C@@H]1CN(c2ccnc(-c3cnc4cnc(C(F)(F)F)cn34)n2)C[C@@H](c2cn[nH]c2)O1` (racemic) [IV-11, Trans-2-Methyl-6-(1H-pyrazol-4-yl)-4-(2-(6-(trifluoromethyl)imidazo[1,2-a]pyrazin-3-yl)pyrimidin-4-yl)morpholine], which Ki (GCN2 kinase; [8]) is on record?
**A.** 10 to 100 nM

**Q.** What about the IC50 [1, 9] of the same molecule?
**A.** 500 to 5000 nM

**Q.** Which Ki (GCN2 kinase; [8]) does the source give for `C[C@@H]1CN(c2ccnc(-c3cnc4cnc(C(F)(F)F)cn34)n2)C[C@H](c2cn[nH]c2)O1` (racemic) [IV-12, Cis-2-Methyl-6-(1H-pyrazol-4-yl)-4-(2-(6-(trifluoromethyl)imidazo[1,2-a]pyrazin-3-yl)pyrimidin-4-yl)morpholine] here?
**A.** < 10 nM

**Q.** And the IC50 [1, 9]?
**A.** < 500 nM

**Q.** For `C[C@@H]1CC[C@H](C(N)=O)CN1c1ccnc(-c2cnc3cnc(C(F)F)cn23)n1` (racemic) [IV-106, Cis-1-(2-(6-(Difluoromethyl)imidazo[1,2-a]pyrazin-3-yl)pyrimidin-4-yl)-6-methylpiperidine-3 carboxamide], which Ki (GCN2 kinase; [8]) is on record?
**A.** 10 to 100 nM

**Q.** What about the IC50 [1, 9] of the same molecule?
**A.** 500 to 5000 nM

**Q.** What does the source list for `C[C@H]1[C@@H](C(=O)O)CCCN1c1ccnc(-c2cnc3cnc(C(F)F)cn23)n1` (racemic) [IV-110, Cis-1-(2-(6-(Difluoromethyl)imidazo[1,2-a]pyrazin-3-yl)pyrimidin-4-yl)-2-methylpiperidine-3-carboxylic acid]?
**A.** Ki (GCN2 kinase; [8]): 100 to 1000 nM; IC50 [1, 9]: > 5000 nM

**Q.** With `C[C@@H]1CN(c2ccnc(-c3cnc4cnc(Cl)cn34)n2)C[C@H](c2cn[nH]c2)N1` (racemic) [IV-206, Cis-6-Chloro-3-(4-(3-methyl-5-(H-pyrazol-4-yl)piperazin-1-yl)pyrimidin-2-yl)imidazo[1,2-a]pyrazine] as the molecule, how does the Ki (GCN2 kinase; [8]) read?
**A.** 10 to 100 nM

**Q.** And the IC50 [1, 9]?
**A.** 500 to 5000 nM

**Q.** With `FC(F)(F)c1cn2c(-c3nccc(N4CCc5sccc5C4)n3)cnc2cn1` [IV-749] as the molecule, how does the Ki (GCN2 kinase; [8]) read?
**A.** > 1000 nM

**Q.** `CC(C)(C)n1cc(C(=O)N[C@H]2CCCN(c3ccnc(-c4cnc5cnc(C(F)(F)F)cn45)n3)C2)nn1` [IV-750] was tested. Which Ki (GCN2 kinase; [8]) did it give?
**A.** > 1000 nM

**Q.** `O=C(N[C@H]1CCCN(c2ccnc(-c3cnc4cnc(C(F)(F)F)cn34)n2)C1)c1c[nH]cn1` [IV-751] was tested. Which Ki (GCN2 kinase; [8]) did it give?
**A.** > 1000 nM

**Q.** `Cc1n[nH]cc1[C@H]1C[C@H](C)CN(c2nccc(-c3cnc4cnc(C(F)(F)F)cn34)n2)C1` [IV-755, 3-(2-((3S,5R)-3-methyl-5-(3-methyl-1H-pyrazol-4-yl)piperidin-1-yl)pyrimidin-4-yl)-6-(trifluoromethyl)imidazo[1,2-a]pyrazine] was tested. Which IC50 (GCN2 kinase; 4 nM GCN2 kinase) did it give?
**A.** 10 to 1000 nM

**Q.** `Cc1n[nH]cc1[C@@H]1C[C@@H](C)CN(c2nccc(-c3cnc4cnc(C(F)(F)F)cn34)n2)C1` [IV-756, -(2-((3R,5S)-3-methyl-5-(3-methyl-1H-pyrazol-4-yl)piperidin-1-yl)pyrimidin-4-yl)-6-(trifluoromethyl)imidazo[1,2-a]pyrazine] was tested. Which IC50 (GCN2 kinase; 4 nM GCN2 kinase) did it give?
**A.** 10 to 1000 nM

**Q.** For `Cc1n[nH]cc1[C@@H]1C[C@H](C)CN(c2nccc(-c3cnc4cnc(C(F)(F)F)cn34)n2)C1` [IV-759, 3-(2-((3S,5S)-3-methyl-5-(3-methyl-1H-pyrazol-4-yl)piperidin-1-yl)pyrimidin-4-yl)-6-(trifluoromethyl)imidazo[1,2-a]pyrazine], which IC50 (GCN2 kinase; 4 nM GCN2 kinase) is on record?
**A.** 10 to 1000 nM

**Q.** How did the IC50 (GCN2 kinase; 4 nM GCN2 kinase) turn out when `Cc1n[nH]cc1[C@@H]1CN(c2ccnc(-c3cnc4cnc(C(F)(F)F)cn34)n2)C[C@@H](C)O1` [IV-760, (2R,6R)-2-methyl-6-(3-methyl-1H-pyrazol-4-yl)-4-(2-(6-(trifluoromethyl)imidazo[1,2-a]pyrazin-3-yl)pyrimidin-4-yl)morpholine] was run?
**A.** 10 to 1000 nM

**Q.** How did the IC50 (GCN2 kinase; 4 nM GCN2 kinase) turn out when `Cc1n[nH]cc1[C@H]1CN(c2ccnc(-c3cnc4cnc(C(F)(F)F)cn34)n2)C[C@H](C)O1` [IV-761, (2S,6S)-2-methyl-6-(3-methyl-1H-pyrazol-4-yl)-4-(2-(6-(trifluoromethyl)imidazo[1,2-a]pyrazin-3-yl)pyrimidin-4-yl)morpholine] was run?
**A.** 10 to 1000 nM

**Q.** With `C[C@H]1C[C@H](c2cn[nH]c2)CN(c2ccnc(-c3cnc4cnc(C(F)(F)F)cn34)n2)C1` [IV-768, 3-(4-((3S,5R)-3-methyl-5-(1H-pyrazol-4-yl)piperidin-1-yl)pyrimidin-2-yl)-6-(trifluoromethyl)imidazo[1,2-a]pyrazine] as the molecule, how does the IC50 (GCN2 kinase; 4 nM GCN2 kinase) read?
**A.** 10 to 1000 nM

**Q.** Which IC50 (GCN2 kinase; 4 nM GCN2 kinase) does the source give for `C[C@@H]1C[C@H](N=S(C)(C)=O)CN(c2ccnc(-c3cnc4cnc(Cl)cn34)n2)C1` [IV-773, (((3S,5R)-1-(2-(6-chloroimidazo[1,2-a]pyrazin-3-yl)pyrimidin-4-yl)-5-methylpiperidin-3-yl)imino)dimethyl-16-sulfanone] here?
**A.** 10 to 1000 nM

**Q.** Which IC50 (GCN2 kinase; 4 nM GCN2 kinase) does the source give for `C[C@H]1[C@@H](c2cn[nH]c2)N(C(=O)C2CC2)[C@@H](C)CN1c1ccnc(-c2cnc3cnc(C(F)(F)F)cn23)n1` [IV-778, cyclopropyl((2R,3S,6S)-3,6-dimethyl-2-(1H-pyrazol-4-yl)-4-(2-(6-(trifluoromethyl)imidazo[1,2-a]pyrazin-3-yl)pyrimidin-4-yl)piperazin-1-yl)methanone] here?
**A.** 10 to 1000 nM

**Q.** Which IC50 (GCN2 kinase; 4 nM GCN2 kinase) does the source give for `C[C@H]1[C@@H](c2cn[nH]c2)N(C(=O)c2cnoc2)[C@@H](C)CN1c1ccnc(-c2cnc3cnc(C(F)(F)F)cn23)n1` [IV-779, ((2R,3S,6S)-3,6-dimethyl-2-(1H-pyrazol-4-yl)-4-(2-(6-(trifluoromethyl)imidazo[1,2-a]pyrazin-3-yl)pyrimidin-4-yl)piperazin-1-yl)(isoxazol-4-yl)methanone] here?
**A.** 10 to 1000 nM
